Assay results reported in article PMC9161374 (Science Translational Medicine, 2022).
“And” between values parts separate entries of the source, which are not always exact repeats. Equal values may be shown once. Read-outs that look alike come from different tables or passages of the source.

What was measured:
[1] = tested on: SARS-CoV-2 (Omicron, B.1.1.529)
SARS-CoV-2 Delta variant [2] = assay type: in vivo, K18-hACE2 mice; conditions: for % Initial weight / nucleocapsid gRNA copies/ μL / Log10 (FFU/g): individual animals; for % Initial weight: Fig.6B; for nucleocapsid gRNA copies/ μL: Fig.6C; for Log10 (FFU/g): Fig.6D
SARS-CoV-2 Delta variant [3] = assay type: in vivo, K18-hACE2 mice; conditions: for lung virus titers in plaque assays: ATV006 250 or 100 mg/kg, EIDD-2801 500 mg/kg
[4] = tested on: SARS-CoV-2 (Delta, B.1.617.2); assay: microbe, parasite or virus in culture; assay type: cell-based

## CC(C)C(=O)OC[C@H]1O[C@@](C#N)(c2ccc3c(N)ncnn23)[C@H](O)[C@@H]1O [ATV006]
[1]
  fold potency improvement: > 12 fold
  therapeutic index (CC50/EC50): 1207.55
SARS-CoV-2 Delta variant [2]; 10mg/kg, 0d
  % Initial weight: 100%
SARS-CoV-2 Delta variant [2]; 10mg/kg, 1d
  % Initial weight: 101.648% and 100.759% and 96.0784% and 96.7539% and 101.529%
SARS-CoV-2 Delta variant [2]; 10mg/kg, 2d
  % Initial weight: 101.923% and 99.2405% and 97.0588% and 94.7644% and 103.824%
SARS-CoV-2 Delta variant [2]; 10mg/kg, 3d
  % Initial weight: 98.9011% and 98.7342% and 96.5686% and 95.0262% and 104.706%
SARS-CoV-2 Delta variant [2]; 10mg/kg
  nucleocapsid gRNA copies/ μL: 146414 copies/ μL and 275440 copies/ μL and 232362 copies/ μL and 312910 copies/ μL and 80285.6 copies/ μL
SARS-CoV-2 Delta variant [2]; 30mg/kg, 0d
  % Initial weight: 100%
SARS-CoV-2 Delta variant [2]; 30mg/kg, 1d
  % Initial weight: 102.538% and 104.147% and 99.7354% and 98.4143% and 100.606%
SARS-CoV-2 Delta variant [2]; 30mg/kg, 2d
  % Initial weight: 101.015% and 104.987% and 97.619% and 97.6982% and 97.3539%
SARS-CoV-2 Delta variant [2]; 30mg/kg, 3d
  % Initial weight: 101.777% and 105.249% and 100% and 99.7442% and 101.433%
SARS-CoV-2 Delta variant [2]; 30mg/kg
  nucleocapsid gRNA copies/ μL: 13248.7 copies/ μL and 53687.7 copies/ μL and 90173.6 copies/ μL and 4602.2 copies/ μL and 1089.53 copies/ μL
  Log10 (FFU/g): 285 FFU/g and 11142.9 FFU/g and 1428.57 FFU/g
SARS-CoV-2 Delta variant [2]; 80mg/kg, 0d
  % Initial weight: 100%
SARS-CoV-2 Delta variant [2]; 80mg/kg, 1d
  % Initial weight: 98.0198% and 99.4949% and 101.272% and 98.5163% and 99.5238%
SARS-CoV-2 Delta variant [2]; 80mg/kg, 2d
  % Initial weight: 101.98% and 95.9596% and 100% and 98.635% and 104.762%
SARS-CoV-2 Delta variant [2]; 80mg/kg, 3d
  % Initial weight: 103.96% and 97.3232% and 99.6438% and 102.077% and 105.357%
SARS-CoV-2 Delta variant [2]; 80mg/kg
  nucleocapsid gRNA copies/ μL: 1775.52 copies/ μL and 4114.3 copies/ μL and 2639.93 copies/ μL and 10494.5 copies/ μL and 13845.3 copies/ μL
  Log10 (FFU/g): 285 FFU/g
SARS-CoV-2 Delta variant [2]; 150mg/kg, 0d
  % Initial weight: 100%
SARS-CoV-2 Delta variant [2]; 150mg/kg, 1d
  % Initial weight: 98.25% and 98.7147% and 97.1922% and 101.765% and 97.8241%
SARS-CoV-2 Delta variant [2]; 150mg/kg, 2d
  % Initial weight: 98.35% and 100% and 98.2721% and 105.229% and 95.8333%
SARS-CoV-2 Delta variant [2]; 150mg/kg, 3d
  % Initial weight: 97.75% and 97.4293% and 97.1922% and 107.516% and 97.4537%
SARS-CoV-2 Delta variant [2]; 150mg/kg
  nucleocapsid gRNA copies/ μL: 3137.57 copies/ μL and 1055.82 copies/ μL and 1750.74 copies/ μL and 2116.43 copies/ μL and 8855.34 copies/ μL
  Log10 (FFU/g): 285 FFU/g
SARS-CoV-2 Delta variant [2]; mouse, in vivo
  Viral titer in lungs: reduced below the detection limit
  lung histopathology: alleviated the symptoms in the lungs
  viral load in the lungs: reduced viral load in the lungs
SARS-CoV-2 Delta variant [3]; […]
  lung virus titers in plaque assays: below the limit of detection
SARS-CoV-2 Delta variant [3]; mouse, in vivo
  Ccl2 transcript, Vehicle/ATV006 fold change + standard error of the mean: 24.69±25.14
  Cxcl10 transcript, Vehicle/ATV006 fold change + standard error of the mean: 43.19±20.74
  Ifnb transcript, Vehicle/ATV006 fold change + standard error of the mean: 5.85±4.59
  Ifng transcript, Vehicle/ATV006 fold change + standard error of the mean: 25.56±17.77
  Il1β transcript, Vehicle/ATV006 fold change + standard error of the mean: 0.66±0.01
  Il6 transcript, Vehicle/ATV006 fold change + standard error of the mean: 3.14±2.37
  lung pathology (histopathology): reduced evidence of lung pathology
  lung viral RNA compared to the control: significantly reducing viral RNA
  spike (S) protein of SARS-CoV-2 in lungs, immunohistochemistry: hardly detectable
SARS-CoV-2 Delta variant [3]; prophylactic dosing, orally once daily, […]
  survival: prevent the death
[4]
  fold potency improvement: > 4 fold

## CC(C)C(=O)OC[C@H]1O[C@@H](n2ccc(NO)nc2=O)[C@H](O)[C@@H]1O [EIDD-2801, molnupiravir, reference compound]
SARS-CoV-2 Delta variant [3]; […]
  lung virus titers in plaque assays: below the limit of detection

## N#C[C@@]1(c2ccc3c(N)ncnn23)O[C@H](CO)[C@@H](O)[C@H]1O [GS-441524, reference compound]
SARS-CoV-2 Delta variant [2]; 80mg/kg
  nucleocapsid gRNA copies/ μL: 3072139 copies/ μL and 3630875 copies/ μL and 3484205 copies/ μL and 3410466 copies/ μL and 4171196 copies/ μL
  Log10 (FFU/g): 488571 FFU/g and 702857 FFU/g and 351429 FFU/g and 720000 FFU/g and 531429 FFU/g
SARS-CoV-2 Delta variant [2]; 150mg/kg
  nucleocapsid gRNA copies/ μL: 3129847 copies/ μL and 270812 copies/ μL and 4369083 copies/ μL and 2646326 copies/ μL and 9650757 copies/ μL
  Log10 (FFU/g): 342857 FFU/g and 368571 FFU/g and 531429 FFU/g and 360000 FFU/g and 420000 FFU/g
SARS-CoV-2 Delta variant [2]; mouse, in vivo
  Viral titer in lungs: did not inhibit virus replication
  lung histopathology: multiple sites of injury and inflammatory cell infiltration
